The results in this text go back to PMC8150775, “Repositioning Azelnidipine as a Dual Inhibitor Targeting CD47/SIRPα and TIGIT/PVR Pathways for Cancer Immuno-Therapy” (Biomolecules, 2021).

One assay addresses T1, CD47/SIRPα interaction (Homo sapiens, UniProt P78324).
T1 construct: purchased ACRO Biosystem SIA-H5251; host or cells: CHOK1-CD47 cells (lenti-viral transfection)
In words: Blocking assay by flow cytometry, preliminary screening at a single concentration, CD47/SIRPα. To be noted: preliminary test, single concentration of 100 μM. The assay is classed as binding. As to the method:
(§1) The abilities of small molecule inhibitors (SMIs) (purchased from TargetMol, Shanghai, China) to block the binding of SIRPα protein to CHOK1-CD47 cells or PVR protein to CHOK1-TIGIT cells were determined by flow cytometry, as previously reported. The SMIs at indicated concentrations were incubated with Fc-tagged SIRPα or PVR protein for 30 min at 4°C, followed by incubating with the indicated cells for another 30 min. Human SIRPα protein (SIA-H5251, ACRO Biosystem, Beijing, China), mouse SIRPα protein (SIA-M5258, ACRO Biosystem, Beijing, China), human PVR protein (CD5-H82F6, ACRO Biosystem, Beijing, China), and mouse PVR protein (50259-M03H, Sino Biological, Beijing, China) were used. PE-conjugated anti-human IgG antibody was used to detect the Fc protein bind to cells. Cells incubated with the Fc proteins and anti-human IgG antibody without the SMIs serve as the positive control. The mean fluorescent intensity (MFI) of each sample was detected and recorded by a flow cytometry. The blocking efficacy of the SMIs was calculated as the equation: (MFI of the positive control-MFI of the SMI)/MFI of the positive control × 100%.
(§2) The small molecule inhibitor could not only bind to the target; most importantly, it should interfere with the receptor–ligand interactions. Subsequently, the candidate inhibitors were screened by the blocking assays with the established CD47 and TIGIT over-expressing cell lines. The test was initialed with a preliminary screening of the candidates with a single concentration (Figure 2D). Generally, the SMI blocking efficacy to the CD47/SIRPα interaction was much higher than that of the TIGIT/PVR. […] Therefore, the SMI-F11 and SMI-F17 may exert dual blocking effects in the CD47/SIRPα and TIGIT/PVR pathways. Blocking assays with a concentration gradient of the SMI were further performed to validate the preliminary screening. […] The similar blocking assays with the mouse CD47 and TIGIT over-expressing cells were also performed. […] Considering that most pairs of the immune checkpoints interact with the corresponding ligand in parallel forms, the blocking assays with the PD-1/PD-L1 interaction system was also conducted to test the specificity.

Another assay deals with T2, TIGIT/PVR interaction (Homo sapiens, UniProt P15151).
T2 construct: purchased ACRO Biosystem CD5-H82F6; host or cells: CHOK1-TIGIT cells (lenti-viral transfection)
T2 sequence (P15151 21-343 limits assumed): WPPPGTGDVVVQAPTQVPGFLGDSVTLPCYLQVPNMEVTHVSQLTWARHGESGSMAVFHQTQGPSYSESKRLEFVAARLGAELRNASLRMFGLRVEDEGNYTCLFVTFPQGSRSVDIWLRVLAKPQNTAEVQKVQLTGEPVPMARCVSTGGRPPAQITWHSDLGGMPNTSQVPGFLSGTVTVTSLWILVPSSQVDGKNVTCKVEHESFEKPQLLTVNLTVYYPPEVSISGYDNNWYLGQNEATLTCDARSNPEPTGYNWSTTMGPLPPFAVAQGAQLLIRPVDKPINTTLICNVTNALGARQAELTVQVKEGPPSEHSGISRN
In words: Blocking assay by flow cytometry, preliminary screening at a single concentration, TIGIT/PVR. The assay is classed as binding. To be noted: preliminary test, single concentration of 100 μM. As to the method:
as §1, §2

A further assay addresses T3, human CD47/SIRPα (Homo sapiens, UniProt P78324).
T3 construct: purchased ACRO Biosystem SIA-H5251; host or cells: soluble protein purchased; CD47 on CHOK1-hCD47 cells (lenti-viral transfection)
Put plainly: Blocking assay, human SIRPα protein binding to CHOK1-hCD47 cells. The following applies: concentration gradient. As for the experimental part: as §1

Another assay addresses T4, human TIGIT/PVR (Homo sapiens, UniProt P15151).
T4 construct: purchased ACRO Biosystem CD5-H82F6; host or cells: soluble protein purchased; TIGIT on CHOK1-hTIGIT cells (lenti-viral transfection)
Put plainly: Blocking assay, human PVR protein binding to CHOK1-hTIGIT cells. To be noted: concentration gradient. As to the method:
as §1

T1 sequence (P78324 31-370 limits assumed): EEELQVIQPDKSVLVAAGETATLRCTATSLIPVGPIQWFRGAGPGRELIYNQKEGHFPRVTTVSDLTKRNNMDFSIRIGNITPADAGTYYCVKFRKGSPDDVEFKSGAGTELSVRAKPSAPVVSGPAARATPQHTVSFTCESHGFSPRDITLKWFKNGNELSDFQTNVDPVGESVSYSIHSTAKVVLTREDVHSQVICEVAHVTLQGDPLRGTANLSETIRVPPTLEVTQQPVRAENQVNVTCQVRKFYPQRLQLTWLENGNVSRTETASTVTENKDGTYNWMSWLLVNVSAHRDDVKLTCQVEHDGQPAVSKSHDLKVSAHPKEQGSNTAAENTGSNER
T3 sequence (P78324 31-370 limits assumed): as above

For the molecule `Cc1cc(O)c(C(=O)N[C@@H](C(=O)N[C@@H]2C(=O)N3C(C(=O)O)=C(CSc4nnnn4C)CS[C@H]23)c2ccc(O)cc2)cn1` [SMI-F12, Cefpiramide acid], the “blocking efficacy, CD47/SIRPα interaction” value at CD47/SIRPα interaction is recorded as “more than 50%”.

As to `CCCSc1ccc2nc(NC(=O)OC)[nH]c2c1` [SMI-F16, Albendazole], the “activity in interfering with the TIGIT/PVR interaction” value at TIGIT/PVR interaction was “better activities”. With `O=C1[C@H](CC[C@H](O)c2ccc(F)cc2)[C@@H](c2ccc(O)cc2)N1c1ccc(F)cc1` [SMI-F17, Ezetimibe], the “blocking efficacy, CD47/SIRPα interaction” value at CD47/SIRPα interaction was “more than 50%”. In addition, the “activity in interfering with the TIGIT/PVR interaction” value at TIGIT/PVR interaction is given as “better activities”. In addition, the “concentration-dependent blocking effect, CD47/SIRPα” value at human CD47/SIRPα was “could not exert blocking effects in a concentration-dependent manner”. The “concentration-dependent blocking effect, TIGIT/PVR” value on human TIGIT/PVR is on record as “could not exert blocking effects in a concentration-dependent manner”. Take `Nc1cccc2c1CN(C1CCC(=O)NC1=O)C2=O` (centres unmarked) [SMI-F19, Lenalidomide]: the “blocking efficacy, CD47/SIRPα interaction” value on CD47/SIRPα interaction is listed as “more than 50%”.

As to `COc1cccc(N(C)C(=S)Oc2ccc3c(c2)CCCC3)n1` [SMI-F20, Liranaftate], the “activity in interfering with the TIGIT/PVR interaction” value on TIGIT/PVR interaction is “better activities”.
